# ChEMBL document CHEMBL5365467 (J Med Chem, 2023)
# pIC50, pKi: −log10 of the molar value.
# Assays:
# [1] = target: Protein cereblon/Androgen receptor (Homo sapiens, UniProt P10275+Q96SW2, T878A); experiment: PROTAC activity at AR T878A mutant/CRBN in human LNCaP cells assessed as induction of androgen receptor degradation measured at 24 hrs by Western blot analysis; assay type: cell-based
# VCaP = experiment: Growth inhibition in human VCaP cells
# in vivo [2] = settings: Sprague-Dawley, rat, po, 5 mg/kg
# [3] = target: Protein cereblon/Androgen receptor (Homo sapiens, UniProt P10275+Q96SW2); experiment: PROTAC activity at AR/CRBN in AR-positive human VCaP cells assessed as induction of androgen receptor degradation measured at 24 hrs; assay type: cell-based
# [4] = Half life in Sprague-Dawley rat at 2 mg/kg, iv measured upto 24 hrs by LC-MS/MS analysis; settings: in vivo
# in vivo [5] = settings: Sprague-Dawley, rat, po, 5 mg/kg; remark: listed apart in the source
# in vivo [6] = settings: Sprague-Dawley, rat, iv, 2 mg/kg
# [7] = Clearance in Sprague-Dawley rat at 2 mg/kg, iv measured upto 24 hrs by LC-MS/MS analysis; settings: in vivo
# in vivo [8] = settings: Sprague-Dawley, rat, po, 5 mg/kg; remark: listed apart in the source
# [9] = Volume of distribution at steady state in Sprague-Dawley rat at 2 mg/kg, iv measured upto 24 hrs by LC-MS/MS analysis; settings: in vivo
# [10] = Half life in Sprague-Dawley rat at 5 mg/kg, po measured upto 24 hrs by LC-MS/MS analysis; settings: in vivo
# Protein cereblon = Protein cereblon (Homo sapiens, UniProt Q96SW2); experiment: Binding affinity to CRBN (unknown origin) assessed as inhibition constant
# Androgen receptor = target: T1, Androgen receptor (Homo sapiens, UniProt P10275)
# T1 sequence (P10275 whole entry): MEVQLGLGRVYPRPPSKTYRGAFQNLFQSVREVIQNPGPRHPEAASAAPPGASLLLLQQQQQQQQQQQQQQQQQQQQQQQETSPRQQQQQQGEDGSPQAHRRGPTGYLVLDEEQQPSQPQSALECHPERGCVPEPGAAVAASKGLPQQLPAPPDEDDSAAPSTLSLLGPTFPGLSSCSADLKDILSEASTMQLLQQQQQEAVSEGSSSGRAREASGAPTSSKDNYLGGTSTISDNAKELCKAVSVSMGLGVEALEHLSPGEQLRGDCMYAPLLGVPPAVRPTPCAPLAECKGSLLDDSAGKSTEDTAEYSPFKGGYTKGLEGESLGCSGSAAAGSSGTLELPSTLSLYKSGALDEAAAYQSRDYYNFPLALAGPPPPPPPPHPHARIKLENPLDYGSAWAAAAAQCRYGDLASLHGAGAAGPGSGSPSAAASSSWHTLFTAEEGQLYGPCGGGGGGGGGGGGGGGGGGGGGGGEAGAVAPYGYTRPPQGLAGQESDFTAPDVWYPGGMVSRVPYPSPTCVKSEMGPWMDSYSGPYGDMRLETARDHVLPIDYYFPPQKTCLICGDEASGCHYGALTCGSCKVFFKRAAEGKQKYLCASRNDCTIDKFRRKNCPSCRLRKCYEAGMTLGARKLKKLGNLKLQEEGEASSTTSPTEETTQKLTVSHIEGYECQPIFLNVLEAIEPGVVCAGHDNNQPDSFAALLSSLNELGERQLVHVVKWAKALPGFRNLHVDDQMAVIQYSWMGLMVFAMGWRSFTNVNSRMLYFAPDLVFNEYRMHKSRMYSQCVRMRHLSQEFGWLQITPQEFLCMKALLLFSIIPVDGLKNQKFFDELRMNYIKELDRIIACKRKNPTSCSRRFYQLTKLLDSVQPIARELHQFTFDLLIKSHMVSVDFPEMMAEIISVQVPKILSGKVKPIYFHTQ
# Sequence of Protein cereblon/Androgen receptor (Homo sapiens, UniProt P10275+Q96SW2) (Q96SW2 whole entry, one chain of several): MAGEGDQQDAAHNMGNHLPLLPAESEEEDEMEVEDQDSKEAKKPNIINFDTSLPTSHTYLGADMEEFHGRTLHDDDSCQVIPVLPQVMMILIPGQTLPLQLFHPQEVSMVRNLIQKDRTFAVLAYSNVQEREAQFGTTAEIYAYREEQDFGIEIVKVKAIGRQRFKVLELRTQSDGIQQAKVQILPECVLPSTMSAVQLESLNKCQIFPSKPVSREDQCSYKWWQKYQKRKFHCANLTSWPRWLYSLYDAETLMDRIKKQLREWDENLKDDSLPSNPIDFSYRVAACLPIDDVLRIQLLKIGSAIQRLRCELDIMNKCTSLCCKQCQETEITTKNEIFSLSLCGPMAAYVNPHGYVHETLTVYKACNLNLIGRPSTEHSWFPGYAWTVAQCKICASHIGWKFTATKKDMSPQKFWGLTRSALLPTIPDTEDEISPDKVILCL
# Sequence of Protein cereblon (Q96SW2 whole entry): as the sequence (Q96SW2 whole entry, one chain of several) above
smiles,measurement,setting,value
C[C@H]1CC2(CCN(c3ccc(C(=O)N4CCC(N5Cc6cc7c(cc6C5)C(=O)N(C5CCC(=O)NC5=O)C7=O)CC4)cc3)CC2)CN1c1ccc(C#N)c(Cl)c1 (stereo partly drawn),DC50,[1],0.8 nM
same,pIC50,VCaP,7.78
same,bioavailability at 24 h,in vivo [2],81%
same,DC50,[3]; read-out: DC50,0.4 nM
same,half-life at 24 h,[4],5.5 h
same,Cmax at 24 h,in vivo [5],410 ng/mL
same,AUC(0-t) at 24 h,in vivo [6],2100 ng·h/mL
same,clearance at 24 h,[7],15.3 mL/min/kg
same,AUC(0-t) at 24 h,in vivo [8],4280 ng·h/mL
same,Vd at 24 h,[9],6.1 L/kg
same,half-life at 24 h,[10],5.5 h
N#Cc1ccc(N2CCC3(CCN(c4ccc(C(=O)N5CCC(N6CCc7cc8c(cc7C6)C(=O)N(C6CCC(=O)NC6=O)C8=O)CC5)cc4)CC3)C2)cc1Cl (stereo not drawn),DC50,[3]; read-out: DC50,73 nM
C[C@H]1CC2(CCN(c3ccc(C(=O)N4CCC(CN5Cc6cc7c(cc6C5)C(=O)N(C5CCC(=O)NC5=O)C7=O)CC4)cn3)CC2)CN1c1ccc(C#N)c(Cl)c1 (stereo partly drawn),DC50,[1],2.2 nM
same,pIC50,VCaP,7.96
same,DC50,[3]; read-out: DC50,2.3 nM
CN1CCc2cc3c(cc2C1)C(=O)N(C1CCC(=O)NC1=O)C3=O (stereo not drawn),pKi,Protein cereblon,5.22
C[C@H]1CC2(CCN(c3ccc(C(=O)N4CCC(O)(CN5Cc6cc7c(cc6C5)C(=O)N(C5CCC(=O)NC5=O)C7=O)CC4)cc3)CC2)CN1c1ccc(C#N)c(Cl)c1 (stereo partly drawn),DC50,[3]; read-out: DC50,290 nM
O=C1CCC(N2C(=O)c3ccc(N4CCC4)cc3C2=O)C(=O)N1 (stereo not drawn),pKi,Protein cereblon,6.30
N#Cc1ccc(N2CCC3(CCN(c4ccc(C(=O)N5CCC(CN6Cc7cc8c(cc7C6)C(=O)N(C6CCC(=O)NC6=O)C8=O)CC5)cc4)CC3)C2)cc1Cl (stereo not drawn),DC50,[3]; read-out: DC50,5.7 nM
CN1CCN(C(=O)c2ccc(N3CCC4(CCN(c5ccc(C#N)c(Cl)c5)C4)C3)cc2)CC1 (stereo not drawn),pIC50,Androgen receptor,5.74
CN1CCN(c2ccc(C(=O)N3CCC4(CC3)CCN(c3ccc(C#N)c(Cl)c3)C4)cc2)CC1,pIC50,Androgen receptor,5.44
C[C@H]1CC2(CCN(c3ccc(C(=O)N4CC(N5Cc6cc7c(cc6C5)C(=O)N(C5CCC(=O)NC5=O)C7=O)C4)cc3)CC2)CN1c1ccc(C#N)c(Cl)c1 (stereo partly drawn),DC50,[1],5 nM
same,pIC50,VCaP,7.07
same,bioavailability at 24 h,in vivo [2],7.2%
same,DC50,[3]; read-out: DC50,0.7 nM
same,half-life at 24 h,[4],3.2 h
same,Cmax at 24 h,in vivo [5],94 ng/mL
same,AUC(0-t) at 24 h,in vivo [6],2370 ng·h/mL
same,clearance at 24 h,[7],14.5 mL/min/kg
same,AUC(0-t) at 24 h,in vivo [8],423 ng·h/mL
same,Vd at 24 h,[9],2.7 L/kg
same,half-life at 24 h,[10],1.89 h
CN1CCN(c2ccc(C(=O)N3CCC4(CCN(c5ccc(C#N)c(Cl)c5)C4)C3)cc2)CC1 (stereo not drawn),pIC50,Androgen receptor,5.16
N#Cc1ccc(N2CCC3(CCN(c4ccc(C(=O)N5CCC(CN6CCc7cc8c(cc7C6)C(=O)N(C6CCC(=O)NC6=O)C8=O)CC5)cc4)CC3)C2)cc1Cl (stereo not drawn),DC50,[3]; read-out: DC50,25 nM
C[C@H]1CC2(CCN(c3ccc(C(=O)N4CCC(CN5Cc6cc7c(cc6C5)C(=O)N(C5CCC(=O)NC5=O)C7=O)CC4)nc3)CC2)CN1c1ccc(C#N)c(Cl)c1 (stereo partly drawn),DC50,[1],4.6 nM
same,pIC50,VCaP,7.34
same,DC50,[3]; read-out: DC50,15.6 nM
CN1CCN(c2ccc(C(=O)N[C@H]3CC[C@H](Oc4ccc(C#N)c(Cl)c4)CC3)cc2)CC1,pIC50,Androgen receptor,7.26
C[C@@H]1CC2(CCN(c3ccc(C(=O)N4CCC(CN5Cc6cc7c(cc6C5)C(=O)N(C5CCC(=O)NC5=O)C7=O)CC4)cc3)CC2)CN1c1ccc(C#N)c(Cl)c1 (stereo partly drawn),DC50,[3]; read-out: DC50,385 nM
N#Cc1ccc(N2CCC3(CCN(c4ccc(C(=O)N5CCC(CCN6CCc7cc8c(cc7CC6)C(=O)N(C6CCC(=O)NC6=O)C8=O)CC5)cc4)CC3)C2)cc1Cl (stereo not drawn),DC50,[3]; read-out: DC50,3000 nM
C[C@H]1CC2(CCN(c3ccc(C(=O)N4CCC(C)(CN5Cc6cc7c(cc6C5)C(=O)N(C5CCC(=O)NC5=O)C7=O)CC4)cc3)CC2)CN1c1ccc(C#N)c(Cl)c1 (stereo partly drawn),DC50,[1],8.9 nM
same,pIC50,VCaP,7.38
same,bioavailability at 24 h,in vivo [2],45%
same,DC50,[3]; read-out: DC50,3.8 nM
same,half-life at 24 h,[4],6.1 h
same,Cmax at 24 h,in vivo [5],539 ng/mL
same,AUC(0-t) at 24 h,in vivo [6],5090 ng·h/mL
same,clearance at 24 h,[7],6.33 mL/min/kg
same,AUC(0-t) at 24 h,in vivo [8],5730 ng·h/mL
same,Vd at 24 h,[9],3.1 L/kg
same,half-life at 24 h,[10],8.4 h
CC[C@H]1CC2(CCN(c3ccc(C(=O)N4CCC(CN5Cc6cc7c(cc6C5)C(=O)N(C5CCC(=O)NC5=O)C7=O)CC4)cc3)CC2)CN1c1ccc(C#N)c(Cl)c1 (stereo partly drawn),pIC50,VCaP,7.64
CN1CCN(C(=O)c2ccc(N3CCC4(CC3)CCN(c3ccc(C#N)c(Cl)c3)C4)cc2)CC1,pIC50,Androgen receptor,7.10
CN1CCN(C(=O)c2ccc(N3CCC4(CCN(c5ccc(C#N)c(Cl)c5)CC4)C3)cc2)CC1,pIC50,Androgen receptor,5.27
C[C@@H]1CC2(CCN(c3ccc(C(=O)N4CCN(C)CC4)cc3)CC2)CN1c1ccc(C#N)c(Cl)c1,DC50,[3],Not Active
N#Cc1ccc(N2CCC3(CCN(c4ccc(C(=O)N5CCC(N6Cc7cc8c(cc7C6)C(=O)N(C6CCC(=O)NC6=O)C8=O)CC5)cc4)CC3)C2)cc1Cl (stereo not drawn),DC50,[3]; read-out: DC50,9.7 nM
CN1CCN(c2ccc(C(=O)N3CCC4(CCN(c5ccc(C#N)c(Cl)c5)CC4)C3)cc2)CC1,pIC50,Androgen receptor,5.30
CN1CCN(c2ccc(C(=O)N3CCC4(CC3)CN(c3ccc(C#N)c(Cl)c3)C4)cc2)CC1,pIC50,Androgen receptor,< 5.00
CN1CCc2cc3c(cc2CC1)C(=O)N(C1CCC(=O)NC1=O)C3=O (stereo not drawn),pKi,Protein cereblon,5.14
CN1CCN(c2ccc(C(=O)N[C@H]3CC[C@H](N(C)c4ccc(C#N)c(Cl)c4)CC3)cc2)CC1,pIC50,Androgen receptor,7.82
CN1CCN(c2cc3c(cc2F)C(=O)N(C2CCC(=O)NC2=O)C3=O)CC1 (stereo not drawn),pKi,Protein cereblon,5.31
CN1CCN(c2ccc(C(=O)N3CCC4(C3)CN(c3ccc(C#N)c(Cl)c3)C4)cc2)CC1,pIC50,Androgen receptor,5.00
COC1(CN2Cc3cc4c(cc3C2)C(=O)N(C2CCC(=O)NC2=O)C4=O)CCN(C(=O)c2ccc(N3CCC4(CC3)C[C@H](C)N(c3ccc(C#N)c(Cl)c3)C4)cc2)CC1 (stereo partly drawn),DC50,[1],1 nM
same,pIC50,VCaP,8.31
same,bioavailability at 24 h,in vivo [2],22%
same,DC50,[3]; read-out: DC50,0.3 nM
same,half-life at 24 h,[4],4.9 h
same,Cmax at 24 h,in vivo [5],179 ng/mL
same,AUC(0-t) at 24 h,in vivo [6],2390 ng·h/mL
same,clearance at 24 h,[7],13.8 mL/min/kg
same,AUC(0-t) at 24 h,in vivo [8],1320 ng·h/mL
same,Vd at 24 h,[9],4.1 L/kg
same,half-life at 24 h,[10],5.6 h
C[C@H]1CC2(CCN(c3ccc(C(=O)N4CCC(F)(CN5Cc6cc7c(cc6C5)C(=O)N(C5CCC(=O)NC5=O)C7=O)CC4)cc3)CC2)CN1c1ccc(C#N)c(Cl)c1 (stereo partly drawn),DC50,[1],3.7 nM
same,pIC50,VCaP,7.74
same,bioavailability at 24 h,in vivo [2],18%
same,DC50,[3]; read-out: DC50,0.9 nM
same,half-life at 24 h,[4],7.9 h
same,Cmax at 24 h,in vivo [5],216 ng/mL
same,AUC(0-t) at 24 h,in vivo [6],4000 ng·h/mL
same,clearance at 24 h,[7],7.83 mL/min/kg
same,AUC(0-t) at 24 h,in vivo [8],1820 ng·h/mL
same,Vd at 24 h,[9],4.2 L/kg
same,half-life at 24 h,[10],5.2 h
C[C@H]1CC2(CCN(c3ccc(C(=O)N4CC(CN5Cc6cc7c(cc6C5)C(=O)N(C5CCC(=O)NC5=O)C7=O)C4)cc3)CC2)CN1c1ccc(C#N)c(Cl)c1 (stereo partly drawn),pIC50,VCaP,7.59
same,bioavailability at 24 h,in vivo [2],9%
same,half-life at 24 h,[4],1.4 h
same,Cmax at 24 h,in vivo [5],78 ng/mL
same,AUC(0-t) at 24 h,in vivo [6],1380 ng·h/mL
same,clearance at 24 h,[7],25 mL/min/kg
same,AUC(0-t) at 24 h,in vivo [8],310 ng·h/mL
same,Vd at 24 h,[9],1.8 L/kg
same,half-life at 24 h,[10],1.2 h
